Experimental data published in patent publication US11814364B2, “Pyridine N-oxide derivatives useful as factor XIa inhibitors” (Janssen Pharmaceutica NV, priority 2021, dated 2023).

Each compound was assayed against human plasma kallikrein (Homo sapiens, UniProt P03952) (assay: Kallikrein inhibition FLINT assay with quenched AMC peptide substrate Z-Gly-Pro-Arg-AMC (end point EP or kinetic KIN reads)). Details: kinetic reads at 5 min intervals over 30 min; read-out: Kallikrein (KIN) IC50.
Assay type: biochemical
In short: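 Enzyme and compound were preincubated 30 min before adding 50 μM AMC substrate in pH 7.5 Tris/NaCl/CaCl2/BSA/CHAPS buffer. AMC release was read at 30 min endpoint or every 5 min.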

Sequence of human plasma kallikrein (P03952 391-638 limits assumed): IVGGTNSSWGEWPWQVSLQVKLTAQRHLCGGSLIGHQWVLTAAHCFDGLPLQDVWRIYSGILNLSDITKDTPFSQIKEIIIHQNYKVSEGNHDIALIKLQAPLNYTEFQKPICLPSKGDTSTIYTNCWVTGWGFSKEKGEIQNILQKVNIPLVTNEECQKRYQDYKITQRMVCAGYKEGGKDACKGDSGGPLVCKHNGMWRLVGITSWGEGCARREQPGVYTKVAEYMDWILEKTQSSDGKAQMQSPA
Sequence of human plasma kallikrein (P03952 20-390 partner limits assumed): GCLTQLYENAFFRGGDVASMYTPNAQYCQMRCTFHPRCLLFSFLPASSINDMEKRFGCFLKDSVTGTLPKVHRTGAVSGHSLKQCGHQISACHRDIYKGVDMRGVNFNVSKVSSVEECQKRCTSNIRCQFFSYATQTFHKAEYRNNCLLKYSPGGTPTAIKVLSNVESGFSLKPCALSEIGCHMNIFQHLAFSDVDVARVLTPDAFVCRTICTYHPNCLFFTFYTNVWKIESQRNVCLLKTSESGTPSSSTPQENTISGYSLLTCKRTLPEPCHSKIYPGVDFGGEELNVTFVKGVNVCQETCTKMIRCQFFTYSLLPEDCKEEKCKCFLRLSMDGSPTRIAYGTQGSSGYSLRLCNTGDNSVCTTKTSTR

IC50	SMILES
119 nM	COC(=O)Nc1ccc(-c2cnn(C(CC3CCCO3)c3ccc(-c4c(-n5cnnn5)ccc(Cl)c4F)c[n+]3[O-])c2)cc1 (single isomer, unassigned) [Example P202]
572 nM	CN(CC(c1ccc(-c2c(-n3cnnn3)ccc(Cl)c2F)c[n+]1[O-])n1cc(-c2ccnc(C(F)(F)F)c2)cn1)C(=O)C1CC1 (single isomer, unassigned) [Example P425]
353 nM	[O-][n+]1cc(-c2c(-n3cc(Cl)nn3)ccc(Cl)c2F)ccc1[C@@H](CCOC(F)F)n1cc(-c2cn(C(F)F)nn2)cn1 [Example P679]
477 nM	NC(=O)c1ccc(-c2cnn(C(Cc3ccn(C(F)F)n3)c3ccc(-c4c(C(F)F)ccc(Cl)c4F)c[n+]3[O-])c2)cc1F (single isomer, unassigned) [Example Q66]
10.7 nM	[O-][n+]1cc(-c2c(-n3cnnn3)ccc(Cl)c2F)ccc1C(Cc1ccc(F)cc1)n1cc(-c2c(Cl)nnn2C(F)F)cn1 (stereo not shown) [Example P605]
10.2 nM	NC(=O)c1ccc(-c2cnn([C@H](CCOC(F)F)c3ccc(-c4c(-n5cc(C(F)(F)F)nn5)ccc(Cl)c4F)c[n+]3[O-])c2)cc1F [Example P860]
56 nM	CNc1ncc(-c2cnn([C@H](CCOC(F)F)c3ccc(-c4c(-n5cnnn5)ccc(Cl)c4F)c[n+]3[O-])c2)cn1 [Example P552]
62.4 nM	COCC[C@H](c1ccc(-c2c(-n3cnnn3)ccc(Cl)c2F)c[n+]1[O-])n1cc(-c2nn(C(F)F)cc2Cl)cn1 [Example P576]
87.1 nM	NC(=O)c1ccc(-c2cnn(C(CC(=O)N3CCCC3)c3ccc(-c4c(-n5cc(C(F)(F)F)nn5)ccc(Cl)c4F)c[n+]3[O-])c2)cc1F (stereo not shown) [Example P902]
3.9 nM	O=C1CCCN1CC(c1ccc(-c2c(-n3cnnn3)ccc(Cl)c2F)c[n+]1[O-])n1cc(-c2ccncc2)cn1 (stereo not shown) [Example P242]
271 nM	COC(=O)Nc1ccc(-c2cnn(C(COC(C)C)c3ccc(-c4c(-n5cnnn5)ccc(Cl)c4F)c[n+]3[O-])c2)cc1 (stereo not shown) [Example P229]
8.1 nM	[O-][n+]1cc(-c2c(-n3cnnn3)ccc(Cl)c2F)ccc1C(Cn1cc(F)cn1)n1cc(-c2ccncc2)cn1 (stereo not shown) [Example P276]
4.3 nM	Cc1nc(N)ccc1-c1cnn(C(CCOC(F)F)c2ccc(-c3c(-n4cnnn4)ccc(Cl)c3F)c[n+]2[O-])c1 (stereo not shown) [Example P342]
513 nM	CCOC(=O)C1CC1CC(c1ccc(-c2cc(Cl)ccc2-n2cnnn2)c[n+]1[O-])n1cc(-c2ccc(C(=O)O)cc2)cn1 (stereo not shown) [Example P68]
630 nM	[O-][n+]1cc(-c2c(-n3cnnn3)ccc(Cl)c2F)ccc1C(CC1CC1)n1cc(-c2cnsc2)cn1 (stereo not shown) [Example P456]
104 nM	O=C(Cc1cnn(CC(c2ccc(-c3c(-n4cnnn4)ccc(Cl)c3F)c[n+]2[O-])n2cc(-c3ccnc(C(F)(F)F)c3)cn2)c1)N1CCCCC1 (stereo not shown) [Example P473]
165 nM	[O-][n+]1cc(-c2c(-n3cnnn3)ccc(Cl)c2F)ccc1[C@@H](CC1CC1)n1cc(-c2c(F)cnn2C(F)F)cn1 [Example P628]
11.8 nM	O=C(O)c1ccc(-c2cnn(C(Cc3ncco3)c3ccc(-c4c(-n5cc(C(F)(F)F)nn5)ccc(Cl)c4F)c[n+]3[O-])c2)cc1F (stereo not shown) [Example P912]
68.8 nM	[2H]C([2H])(C[C@H](c1ccc(-c2c(-n3cc(C(F)(F)F)nn3)ccc(Cl)c2F)c[n+]1[O-])n1cc(-c2ncnn2C)cn1)OC(F)F [Example P820]
21.6 nM	COC(=O)Nc1ccc(-c2cnn(C(CN(C)C(=O)OC)c3ccc(-c4c(-n5cnnn5)ccc(Cl)c4F)c[n+]3[O-])c2)cc1 (stereo not shown) [Example P476]
92.5 nM	Cc1ncsc1-c1cnn(C(CC2CC2)c2ccc(-c3c(-n4cnnn4)ccc(Cl)c3F)c[n+]2[O-])c1 (stereo not shown) [Example P488]
124 nM	[O-][n+]1cc(-c2c(-n3cnnn3)ccc(Cl)c2F)ccc1C(CC1CC1)n1cc(-c2ccncc2)cn1 (stereo not shown) [Example P187]
18.3 nM	COC(=O)Nc1ccc(-c2cnn(C(Cc3ccc(Cl)cc3)c3ccc(-c4c(-n5cnnn5)ccc(Cl)c4F)c[n+]3[O-])c2)cc1 (stereo not shown) [Example P94]
2.2 nM	Cn1cc(-c2cnn([C@H](Cc3ccn(C(F)F)n3)c3ccc(-c4c(-n5cc(C#N)nn5)ccc(Cl)c4F)c[n+]3[O-])c2)c(Cl)n1 [Example P852]
49.6 nM	COC(=O)Nc1ccc(-c2cnn(C(Cc3ccn(C)n3)c3ccc(-c4c(-n5cnnn5)ccc(Cl)c4F)c[n+]3[O-])c2)cc1 (single isomer, unassigned) [Example P329]
2.9 nM	NC(=O)c1ccc(-c2cnn(C(Cc3ccn(C(F)F)n3)c3ccc(-c4c(C(F)F)ccc(Cl)c4F)c[n+]3[O-])c2)cc1F (single isomer, unassigned) [Example Q67]
28.5 nM	COC(=O)Nc1ccc(-c2cnn(C(Cc3ccccc3OC)c3ccc(-c4c(-n5cnnn5)ccc(Cl)c4F)c[n+]3[O-])c2)cc1 (stereo not shown) [Example P164]
58.1 nM	O=C(NC1CC1)c1ccc(-c2cnn(C(CC3CCCCO3)c3ccc(-c4c(-n5cnnn5)ccc(Cl)c4F)c[n+]3[O-])c2)cc1 (single isomer, unassigned) [Example P143]

IC50	SMILES
203 nM	Cn1ncnc1-c1cnn([C@H](CCOC(F)F)c2ccc(-c3c(-n4cc(C5CC5)nn4)ccc(Cl)c3F)c[n+]2[O-])c1 [Example P781]
161 nM	O=c1ccccn1CC(c1ccc(-c2c(-n3cnnn3)ccc(Cl)c2F)c[n+]1[O-])n1cc(-c2cc[n+]([O-])c(C(F)F)c2)cn1 (single isomer, unassigned) [Example P373]
303 nM	Cc1nccn1-c1cnn(C(CCOC(F)F)c2ccc(-c3c(-n4cc(OC(F)F)nn4)ccc(Cl)c3F)c[n+]2[O-])c1 (single isomer, unassigned) [Example P826]
296 nM	Cn1cc(-c2cnn(C(CC3CC3)c3ccc(-c4c(-n5cnnn5)ccc(Cl)c4F)c[n+]3[O-])c2)ccc1=O (stereo not shown) [Example P216]
22.8 nM	Cn1cc(C[C@H](c2ccc(-c3c(-n4cc(Cl)nn4)ccc(Cl)c3F)c[n+]2[O-])n2cc(-c3ccnc(C(F)(F)F)c3)cn2)nn1 [Example P739]
41.4 nM	Cn1ncnc1-c1cnn(C(CC2CC2)c2ccc(-c3c(-n4cc(C(F)(F)F)nn4)ccc(Cl)c3F)c[n+]2[O-])c1 (stereo not shown) [Example P874]
18 nM	Cn1ncnc1-c1cnn([C@H](CCOC(F)F)c2ccc(-c3c(-n4cnnn4)ccc(Cl)c3F)c[n+]2[O-])c1 [Example P550]
506 nM	COC(C)(C)C[C@H](c1ccc(-c2c(-n3cnnn3)ccc(Cl)c2F)c[n+]1[O-])n1cc(-c2ccnn2C(F)F)cn1 [Example P646]
29.5 nM	[O-][n+]1cc(-c2c(-n3cc(Cl)nn3)ccc(Cl)c2F)ccc1[C@@H](CCOC(F)F)n1cc(-c2ncnn2C(F)F)cn1 [Example P683]
222 nM	Cc1cc(C(N)=O)sc1-c1cnn(C(CC2CC2)c2ccc(-c3c(-n4cc(C(F)(F)F)nn4)ccc(Cl)c3F)c[n+]2[O-])c1 (single isomer, unassigned) [Example P957]
109 nM	CN(CC(c1ccc(-c2c(-n3cnnn3)ccc(Cl)c2F)c[n+]1[O-])n1cc(-c2ccnc(C(F)(F)F)c2)cn1)C(=O)C1CCOCC1 (stereo not shown) [Example P407]
3 nM	COC(=O)Nc1ccc(-c2cnn(C(CCOC(F)F)c3ccc(-c4c(-n5cnnn5)ccc(Cl)c4F)c[n+]3[O-])c2)cc1 (stereo not shown) [Example P226]
> 100 nM	CC1CC1C[C@@H](c1ccc(-c2c(-n3cnnn3)ccc(Cl)c2F)c[n+]1[O-])n1cc(-c2c(F)nnn2C)cn1 (stereo partly shown) [Example P769]
889 nM	NC(=O)c1ccc(-c2cnn(C(Cc3ccn(C(F)F)n3)c3ccc(-c4cc(Cl)ccc4-n4cc(C(F)(F)F)nn4)c[n+]3[O-])c2)cc1F (single isomer, unassigned) [Example P905]
39.8 nM	[2H]C([2H])([2H])OCCC(c1ccc(-c2c(-n3cnnn3)ccc(Cl)c2F)c[n+]1[O-])n1cc(-c2ccnc(C(F)(F)F)c2)cn1 (single isomer, unassigned) [Example P386]
14.5 nM	NC(=O)c1ccc(-c2cnn(C(CC3CC3)c3ccc(-c4c(-n5cnnn5)ccc(Cl)c4F)c[n+]3[O-])c2)cc1F (single isomer, unassigned) [Example P947]
755 nM	O=C(O)C1CCN(C(=O)C2CC2CC(c2ccc(-c3c(-n4cnnn4)ccc(Cl)c3F)c[n+]2[O-])n2cc(-c3ccccc3)cn2)CC1 (stereo not shown) [Example P215]
3.9 nM	O=C(O)c1ccc(-c2cnn(C(CN3CCCC3=O)c3ccc(-c4c(C(F)F)ccc(Cl)c4F)c[n+]3[O-])c2)cc1 (single isomer, unassigned) [Example Q14]
259 nM	[O-][n+]1cc(-c2c(C(F)F)ccc(Cl)c2F)ccc1C(CCOC(F)F)n1cc(-c2ccnc(C(F)(F)F)n2)cn1 (stereo not shown) [Example Q29]
8 nM	Nc1ncc(-c2cnn([C@H](CC3CC3)c3ccc(-c4c(-n5cnnn5)ccc(Cl)c4F)c[n+]3[O-])c2)s1 [Example P614]
893 nM	[O-][n+]1cc(-c2c(-n3cnnn3)ccc(Cl)c2F)ccc1C(Cn1cc(F)cn1)n1cc(-c2ccnn2C(F)F)cn1 (stereo not shown) [Example P645]
23 nM	CN(CC(c1ccc(-c2c(-n3cnnn3)ccc(Cl)c2F)c[n+]1[O-])n1cc(-c2ccncc2)cn1)OC(F)(F)F (stereo not shown) [Example P323]
80.4 nM	[O-][n+]1cc(-c2c(C(F)F)ccc(Cl)c2F)ccc1C(Cn1cc(F)cn1)n1cc(-c2ccnc(C(F)(F)F)c2)cn1 (single isomer, unassigned) [Example Q23]
2.7 nM	CCC(c1cc(OC)c(-c2cc(Cl)ccc2-n2cc(C(F)(F)F)nn2)c[n+]1[O-])n1cc(-c2ccc(C(N)=O)c(F)c2)cn1 (single isomer, unassigned) [Example P878]
39.6 nM	Cn1ncnc1-c1cnn([C@H](CCOC(F)F)c2ccc(-c3c(-n4cc(Cl)nn4)ccc(Cl)c3F)c[n+]2[O-])c1 [Example P722]
159 nM	[O-][n+]1cc(-c2c(-n3cnnn3)ccc(Cl)c2F)ccc1C(Cn1cc(F)cn1)n1cc(-c2cc(C(F)(F)F)ncn2)cn1 (stereo not shown) [Example P468]
108 nM	O=C(NC1CC1)c1ccc(-c2cnn(C(CC3CCCCO3)c3ccc(-c4c(-n5cnnn5)ccc(Cl)c4F)c[n+]3[O-])c2)cc1 (single isomer, unassigned) [Example P142]
